From the kinase profiling compilation of Christmann-Franck et al. (2016)

Tests used:
Experiment in all cases: radiometric filter-binding kinase assay
NEK2 (human) = NEK2 (human) (UniProt P51955); conditions: compound 1.0 µM; ATP 50 µM
CAMKK1 (human) = CAMKK1 (human) (UniProt Q8N5S9); conditions: compound 1.0 µM; ATP 20 µM
EEF2K (human) = EEF2K (human) (UniProt O00418); conditions: compound 1.0 µM
PAK6 (human) = PAK6 (human) (UniProt Q9NQU5); conditions: compound 1.0 µM; ATP 20 µM
MARK3 (human) = MARK3 (human) (UniProt P27448); conditions: compound 1.0 µM; ATP 5 µM
PAK4 (human) = PAK4 (human) (UniProt O96013); conditions: compound 1.0 µM; ATP 5 µM
MAPKAPK3 (human) = MAPKAPK3 (human) (UniProt Q16644); conditions: compound 1.0 µM; ATP 20 µM
MAPKAPK5 (human) = MAPKAPK5 (human) (UniProt Q8IW41); conditions: compound 1.0 µM; ATP 20 µM
MAPKAPK5 (human), sequence (Q8IW41 whole entry, looked up): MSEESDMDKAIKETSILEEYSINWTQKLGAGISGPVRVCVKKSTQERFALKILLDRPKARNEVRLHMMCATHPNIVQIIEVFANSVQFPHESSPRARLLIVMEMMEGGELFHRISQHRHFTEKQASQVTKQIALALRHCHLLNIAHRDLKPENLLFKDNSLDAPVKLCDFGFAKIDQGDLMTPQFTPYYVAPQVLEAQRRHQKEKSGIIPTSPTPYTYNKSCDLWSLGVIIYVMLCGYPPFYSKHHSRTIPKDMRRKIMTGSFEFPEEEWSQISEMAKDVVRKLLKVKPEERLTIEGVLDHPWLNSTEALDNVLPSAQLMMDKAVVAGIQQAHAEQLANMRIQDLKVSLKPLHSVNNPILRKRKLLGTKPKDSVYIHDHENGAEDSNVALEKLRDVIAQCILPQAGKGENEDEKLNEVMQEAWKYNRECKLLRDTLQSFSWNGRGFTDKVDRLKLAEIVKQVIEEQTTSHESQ

DYRK2 (human) = DYRK2 (human) (UniProt Q92630); conditions: compound 1.0 µM; ATP 50 µM
DYRK2 (human), sequence (Q92630 whole entry, looked up): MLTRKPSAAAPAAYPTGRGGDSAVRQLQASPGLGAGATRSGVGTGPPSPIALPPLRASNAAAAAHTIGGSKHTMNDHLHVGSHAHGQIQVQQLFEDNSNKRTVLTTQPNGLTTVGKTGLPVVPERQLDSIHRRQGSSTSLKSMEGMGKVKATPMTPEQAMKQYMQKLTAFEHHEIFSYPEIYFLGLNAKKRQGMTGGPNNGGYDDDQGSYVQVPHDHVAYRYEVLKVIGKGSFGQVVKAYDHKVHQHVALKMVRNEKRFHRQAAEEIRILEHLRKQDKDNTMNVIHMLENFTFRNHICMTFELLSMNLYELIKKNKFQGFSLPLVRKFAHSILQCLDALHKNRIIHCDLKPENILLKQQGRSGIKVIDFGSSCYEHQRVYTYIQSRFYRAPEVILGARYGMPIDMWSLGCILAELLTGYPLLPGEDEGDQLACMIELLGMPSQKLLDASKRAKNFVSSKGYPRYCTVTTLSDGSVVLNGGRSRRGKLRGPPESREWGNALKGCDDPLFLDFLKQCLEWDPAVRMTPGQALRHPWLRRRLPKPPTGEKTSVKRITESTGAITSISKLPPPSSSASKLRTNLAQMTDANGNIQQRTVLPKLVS

CaMK1 (human) = CaMK1 (human) (UniProt Q14012); conditions: compound 1.0 µM; ATP 50 µM
CaMK1 (human), sequence (Q14012 whole entry, looked up): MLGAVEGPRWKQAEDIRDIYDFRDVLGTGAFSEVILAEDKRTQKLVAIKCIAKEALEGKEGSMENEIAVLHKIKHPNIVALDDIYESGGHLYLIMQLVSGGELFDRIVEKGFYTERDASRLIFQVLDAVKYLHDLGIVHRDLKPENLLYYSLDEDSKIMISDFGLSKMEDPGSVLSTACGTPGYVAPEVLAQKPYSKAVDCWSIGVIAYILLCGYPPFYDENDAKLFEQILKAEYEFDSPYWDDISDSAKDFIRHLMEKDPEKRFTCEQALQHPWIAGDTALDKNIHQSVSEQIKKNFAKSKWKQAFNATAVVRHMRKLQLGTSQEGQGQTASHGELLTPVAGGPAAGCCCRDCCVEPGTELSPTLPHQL

PLK1 (human) = PLK1 (human) (UniProt P53350); conditions: compound 1.0 µM; ATP 5 µM
PRKAA1 or PRKAA2 (rat) = conditions: compound 1.0 µM
AURKB (human) = AURKB (human) (UniProt Q96GD4); conditions: compound 1.0 µM; ATP 20 µM
AURKB (human), sequence (Q96GD4 whole entry, looked up): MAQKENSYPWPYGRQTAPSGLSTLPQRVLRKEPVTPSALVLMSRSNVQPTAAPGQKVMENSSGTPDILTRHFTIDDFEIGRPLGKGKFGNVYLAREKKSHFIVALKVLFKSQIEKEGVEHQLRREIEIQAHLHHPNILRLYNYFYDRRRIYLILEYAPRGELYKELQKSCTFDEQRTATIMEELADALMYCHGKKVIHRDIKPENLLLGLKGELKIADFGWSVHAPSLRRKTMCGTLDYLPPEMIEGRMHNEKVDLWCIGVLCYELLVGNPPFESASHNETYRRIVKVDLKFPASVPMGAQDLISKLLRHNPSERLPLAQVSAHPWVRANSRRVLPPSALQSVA

NEK6 (human) = NEK6 (human) (UniProt Q9HC98); conditions: compound 1.0 µM; ATP 50 µM
MAPKAPK2 (human) = MAPKAPK2 (human) (UniProt P49137); conditions: compound 1.0 µM; ATP 20 µM
MAPKAPK2 (human), sequence (P49137 whole entry, looked up): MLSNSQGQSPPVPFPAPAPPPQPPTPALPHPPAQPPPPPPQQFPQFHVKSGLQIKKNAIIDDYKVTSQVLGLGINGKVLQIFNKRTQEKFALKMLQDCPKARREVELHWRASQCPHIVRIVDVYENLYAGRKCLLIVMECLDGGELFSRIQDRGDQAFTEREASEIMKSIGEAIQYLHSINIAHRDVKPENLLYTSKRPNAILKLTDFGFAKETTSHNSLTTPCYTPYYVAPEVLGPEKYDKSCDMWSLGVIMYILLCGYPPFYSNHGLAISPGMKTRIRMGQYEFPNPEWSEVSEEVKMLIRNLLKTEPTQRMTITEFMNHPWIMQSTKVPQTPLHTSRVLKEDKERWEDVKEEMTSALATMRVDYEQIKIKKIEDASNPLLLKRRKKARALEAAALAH

MAP2K1 (human) = MAP2K1 (human) (UniProt Q02750); conditions: compound 1.0 µM; ATP 5 µM
CSK (human) = CSK (human) (UniProt P41240); conditions: compound 1.0 µM; ATP 20 µM
CSK (human), sequence (P41240 whole entry, looked up): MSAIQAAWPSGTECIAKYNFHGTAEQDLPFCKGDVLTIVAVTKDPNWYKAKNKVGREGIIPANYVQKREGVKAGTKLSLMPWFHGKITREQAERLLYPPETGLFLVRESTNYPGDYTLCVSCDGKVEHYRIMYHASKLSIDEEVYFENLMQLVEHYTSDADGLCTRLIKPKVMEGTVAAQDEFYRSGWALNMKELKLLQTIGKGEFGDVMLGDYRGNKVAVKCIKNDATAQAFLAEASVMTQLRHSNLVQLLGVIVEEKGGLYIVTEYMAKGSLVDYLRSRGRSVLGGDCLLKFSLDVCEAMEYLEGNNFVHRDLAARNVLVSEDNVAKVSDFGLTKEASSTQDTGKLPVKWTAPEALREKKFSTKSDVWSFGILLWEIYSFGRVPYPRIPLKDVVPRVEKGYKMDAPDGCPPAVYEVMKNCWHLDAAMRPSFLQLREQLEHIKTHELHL

RPS6KA5 KD1 KD2 (human) = RPS6KA5 KD1 KD2 (human) (UniProt O75582); conditions: compound 1.0 µM; ATP 20 µM
RPS6KA5 KD1 KD2 (human), sequence (O75582 whole entry, looked up): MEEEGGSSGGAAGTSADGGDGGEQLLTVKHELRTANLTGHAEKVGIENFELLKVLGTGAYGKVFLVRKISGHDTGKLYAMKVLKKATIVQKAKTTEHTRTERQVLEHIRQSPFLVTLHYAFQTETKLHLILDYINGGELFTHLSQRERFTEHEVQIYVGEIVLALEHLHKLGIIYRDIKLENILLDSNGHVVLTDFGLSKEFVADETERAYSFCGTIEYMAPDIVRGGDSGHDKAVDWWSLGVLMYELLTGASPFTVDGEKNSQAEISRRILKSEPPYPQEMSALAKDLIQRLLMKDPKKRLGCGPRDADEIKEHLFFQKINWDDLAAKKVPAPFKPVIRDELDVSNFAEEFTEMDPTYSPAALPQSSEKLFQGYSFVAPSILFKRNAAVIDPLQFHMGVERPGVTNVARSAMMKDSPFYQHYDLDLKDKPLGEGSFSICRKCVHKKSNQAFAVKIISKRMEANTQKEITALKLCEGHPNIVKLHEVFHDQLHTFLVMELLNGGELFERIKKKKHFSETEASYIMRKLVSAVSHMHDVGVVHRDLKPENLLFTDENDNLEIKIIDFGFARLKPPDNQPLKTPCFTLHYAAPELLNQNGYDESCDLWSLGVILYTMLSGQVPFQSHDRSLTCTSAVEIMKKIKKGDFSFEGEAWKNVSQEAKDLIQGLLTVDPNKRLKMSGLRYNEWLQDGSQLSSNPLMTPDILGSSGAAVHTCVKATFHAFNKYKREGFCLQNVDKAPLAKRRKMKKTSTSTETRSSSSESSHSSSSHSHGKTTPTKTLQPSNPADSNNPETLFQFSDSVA

[1] = tested on: SGK1 (human), O00141 [S422D]; conditions: compound 1.0 µM; ATP 20 µM
SGK1 (human), O00141 [S422D], sequence (O00141 whole entry S422D, looked up): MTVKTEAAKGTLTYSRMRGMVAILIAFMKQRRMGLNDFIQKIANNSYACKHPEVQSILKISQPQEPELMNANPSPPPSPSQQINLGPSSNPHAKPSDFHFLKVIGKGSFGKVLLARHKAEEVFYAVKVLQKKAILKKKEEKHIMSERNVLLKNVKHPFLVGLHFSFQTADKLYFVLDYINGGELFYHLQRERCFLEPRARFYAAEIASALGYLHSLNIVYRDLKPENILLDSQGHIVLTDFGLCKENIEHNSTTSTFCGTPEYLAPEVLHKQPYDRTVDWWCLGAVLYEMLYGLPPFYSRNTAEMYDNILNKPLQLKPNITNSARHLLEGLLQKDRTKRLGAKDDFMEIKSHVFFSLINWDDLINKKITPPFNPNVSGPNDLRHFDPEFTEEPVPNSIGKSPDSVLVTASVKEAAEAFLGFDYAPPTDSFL

PIM3 (human) = PIM3 (human) (UniProt Q86V86); conditions: compound 1.0 µM; ATP 20 µM
SRPK1 (human) = SRPK1 (human) (UniProt Q96SB4); conditions: compound 1.0 µM; ATP 50 µM
SRPK1 (human), sequence (Q96SB4 whole entry, looked up): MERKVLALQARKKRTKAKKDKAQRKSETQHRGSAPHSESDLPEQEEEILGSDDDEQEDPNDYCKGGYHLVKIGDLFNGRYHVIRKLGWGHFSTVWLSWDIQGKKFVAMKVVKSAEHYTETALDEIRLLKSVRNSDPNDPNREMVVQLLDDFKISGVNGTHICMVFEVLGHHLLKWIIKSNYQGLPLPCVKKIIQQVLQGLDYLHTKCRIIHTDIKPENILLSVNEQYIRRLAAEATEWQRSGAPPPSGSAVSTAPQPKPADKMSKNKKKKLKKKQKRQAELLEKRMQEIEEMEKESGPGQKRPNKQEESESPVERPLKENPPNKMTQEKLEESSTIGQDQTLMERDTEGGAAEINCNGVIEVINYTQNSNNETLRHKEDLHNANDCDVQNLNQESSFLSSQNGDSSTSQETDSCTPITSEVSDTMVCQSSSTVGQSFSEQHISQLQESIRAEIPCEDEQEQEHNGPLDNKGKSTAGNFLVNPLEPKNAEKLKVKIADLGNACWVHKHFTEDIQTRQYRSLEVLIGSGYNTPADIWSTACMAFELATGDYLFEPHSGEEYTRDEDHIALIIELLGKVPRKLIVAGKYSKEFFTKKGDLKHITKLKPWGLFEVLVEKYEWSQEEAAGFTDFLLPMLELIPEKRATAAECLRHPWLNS

[2] = target: PRKACA or PRKACB or PRKACG (human) (UniProt P22694+P22612+P17612); conditions: compound 1.0 µM
CHEK2 (human) = CHEK2 (human) (UniProt O96017); conditions: compound 1.0 µM; ATP 20 µM
MAPK9 (human) = MAPK9 (human) (UniProt P45984); conditions: compound 1.0 µM; ATP 20 µM
CSNK1D (human) = CSNK1D (human) (UniProt P48730); conditions: compound 1.0 µM
RPS6KA3 KD1 KD2 (human) = RPS6KA3 KD1 KD2 (human) (UniProt P51812); conditions: compound 1.0 µM; ATP 50 µM
[3] = tested on: RPS6KB1 (human), P23443 [T412E]; conditions: compound 1.0 µM; ATP 20 µM
IKBKB (human) = IKBKB (human) (UniProt O14920); conditions: compound 1.0 µM; ATP 5 µM
STK3 (human) = STK3 (human) (UniProt Q13188); conditions: compound 1.0 µM; ATP 20 µM
[4] = accession and sequence are those of the human protein

NEK2 (human), sequence (P51955 whole entry, looked up): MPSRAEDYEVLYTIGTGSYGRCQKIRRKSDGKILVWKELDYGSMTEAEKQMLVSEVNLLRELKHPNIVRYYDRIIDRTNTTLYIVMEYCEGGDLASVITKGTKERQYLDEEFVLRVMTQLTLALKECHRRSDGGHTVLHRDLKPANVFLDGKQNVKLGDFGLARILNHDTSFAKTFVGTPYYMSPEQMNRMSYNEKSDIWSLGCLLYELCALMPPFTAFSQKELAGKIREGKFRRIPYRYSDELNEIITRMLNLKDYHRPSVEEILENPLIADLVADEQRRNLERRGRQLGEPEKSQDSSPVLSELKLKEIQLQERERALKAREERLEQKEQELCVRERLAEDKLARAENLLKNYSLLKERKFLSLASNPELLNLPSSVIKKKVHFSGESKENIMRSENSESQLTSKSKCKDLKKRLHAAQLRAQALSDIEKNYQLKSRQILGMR

| SMILES | residual activity (NEK2 (human)) [%] | residual activity (CAMKK1 (human)) [%] | residual activity (PAK6 (human)) [%] | residual activity (MAPKAPK3 (human)) [%] | residual activity (MAPKAPK5 (human)) [%] | residual activity (DYRK2 (human)) [%] | residual activity (CaMK1 (human)) [%] | residual activity (PLK1 (human)) [%] | residual activity (AURKB (human)) [%] | residual activity (NEK6 (human)) [%] | residual activity (MAPKAPK2 (human)) [%] | residual activity (CSK (human)) [%] | residual activity (RPS6KA5 KD1 KD2 (human)) [%] | residual activity [1] [%] | residual activity (PIM3 (human)) [%] | residual activity (SRPK1 (human)) [%] | residual activity (CHEK2 (human)) [%] | residual activity (RPS6KA3 KD1 KD2 (human)) [%] | residual activity [3] [%] | residual activity (IKBKB (human)) [%] | further results |
| --- | --- | --- | --- | --- | --- | --- | --- | --- | --- | --- | --- | --- | --- | --- | --- | --- | --- | --- | --- | --- | --- |
| COC[C@H]1OC(=O)c2coc3c2[C@@]1(C)C1=C(C3=O)[C@@H]2CCC(=O)[C@@]2(C)C[C@H]1OC(C)=O | 81 | 83 | 86 | 98 | 69 | 98 | 97 | 64 | 83 | 113 | 125 | 73 | 85 | 86 | 86 | 73 | 90 | 90 | 95 | 96 | residual activity (EEF2K (human); ATP 5 µM): 97%; residual activity (MARK3 (human)): 85%; residual activity (PAK4 (human)): 90%; residual activity (PRKAA1 or PRKAA2 (rat); [4]): 88%; residual activity (MAP2K1 (human)): 63%; residual activity ([2]; ATP 20 µM): 86%; residual activity (MAPK9 (human)): 83%; residual activity (CSNK1D (human); ATP 20 µM): 94%; residual activity (STK3 (human)): 96% |
| O=S(=O)(NCCNC/C=C/c1ccc(Br)cc1)c1cccc2cnccc12 | 102 | 102 | 76 | 105 | 89 | 105 | 101 | 95 | 70 | 104 | 111 | 89 | 9 | 62 | 91 | 93 | 69 | 55 | 11 | 98 | residual activity (EEF2K (human); ATP 5 µM): 102%; residual activity (PRKAA1 or PRKAA2 (rat); [4]): 73%; residual activity ([2]; ATP 20 µM): 15%; residual activity (STK3 (human)): 81% |
| COc1ccc2c(c1)=NC1=C(C)NCCC=21 | 96 | 92 | 106 | 97 | 74 | 73 | 103 | 80 | 90 | 94 | 89 | 82 | 94 | 85 | 90 | 89 | 117 | 112 | 93 | 94 | residual activity (EEF2K (human)): 107%; residual activity (MARK3 (human)): 110%; residual activity (PAK4 (human)): 90%; residual activity (PRKAA1 or PRKAA2 (rat)): 106%; residual activity (MAP2K1 (human)): 95%; residual activity [2]: 89%; residual activity (MAPK9 (human)): 86%; residual activity (CSNK1D (human)): 65%; residual activity (STK3 (human)): 101% |
